Results as given in paper PMC5735376, “Dual Level Statistical Investigation of Equilibrium Solubility in Simulated Fasted and Fed Intestinal Fluid” (Molecular Pharmaceutics, 2017).
Read-outs that look alike come from different tables or passages of the source. Values belong to the compound of their own block, whether it stands above or below them.

Legend:
[1] = Equilibrium solubility in simulated intestinal fluid, dual level DoE, fasted arm; type: physicochemical; conditions: for significant DoE factors influencing solubility: fasted and fed study arms together (14 possible values per drug), significance ±4; for direction of monoglyceride effect on solubility (standardized effect): fasted arm, Figure 3; for statistical significance of DoE factor BS:PL on equilibrium solubility / statistical significance of DoE factor bile salt on equilibrium solubility / statistical significance of DoE factor cholesterol on equilibrium solubility / statistical significance of DoE factor lecithin on equilibrium solubility / statistical significance of DoE factor monoglyceride on equilibrium solubility / statistical significance of DoE factor pH on equilibrium solubility / statistical significance of DoE factor sodium oleate on equilibrium solubility: fasted, current study (Figure 3)
Excerpt: (§1) For each media parameter (bile salt, lecithin, sodium oleate, monoglyceride, cholesterol, pH and BS: PL ratio) lower and upper limit concentration values for fasted and fed states were defined, Table 1. Using Minitab 17.2.1 and a custom experimental design, a 1/16 of the full factorial DoE with the seven factors and two levels (lower and upper limits) was constructed (8 experiments around the upper and lower levels plus two center points) separately for the fasted and the fed states. These two tables were then applied as an input for a factorial custom design of experiment which combined the fasted and fed using all 20 data points to provide an overall analysis. The study therefore consists of three arms, two smaller (10 data point) fasted and fed arms, which are then merged into a larger (20 data point) combined arm.
(§2) When designing and analyzing the DoE, only a factor’s main effects and 2 way interactions have been considered and 3 way interactions or more were not included. For each DoE the magnitude for each factor’s effect on equilibrium solubility was determined by the standardized effect value for all of the individual factors and the significant 2-way interactions. This value was used to articulate whether these factors are increasing or decreasing drug solubility.
(§3) The solution was prepared by the addition of an excess amount (above the estimated solubility) of solid for each compound investigated to a centrifuge tube (15 mL Corning Centristar cap, polypropylene RNase/DNase free, nonpyrogenic) followed by the addition of each component of the simulated intestinal fluid media according to the run order generated by the DoE. After all of the media components were added, pH was adjusted to 5, 6, or 7 according to the run order using 0.1 M HCl or 0.1 M KOH and tubes were capped and placed on an orbital shaker (OS 5 basic Yellowline, IKA, Germany) for 1 h after which the pH was readjusted if required. The 20 different tubes were then shaken in a tube rotator for 24 h at 40 rpm at 37 °C to simulate intestinal fluid conditions. After 24 h, a 1 mL amount was taken from each of the 20 tubes and transferred to a 1.5 mL Eppendorf tube then centrifuged at 15 000 rpm for 5 min. Following centrifugation 0.5 mL of the supernatant solution was transferred to an HPLC vial to analyze drug solubility using HPLC (Table 4).

[2] = Equilibrium solubility in simulated intestinal fluid, dual level DoE, fed arm; type: physicochemical; conditions: for statistical significance of DoE factor BS:PL on equilibrium solubility / statistical significance of DoE factor bile salt on equilibrium solubility / statistical significance of DoE factor cholesterol on equilibrium solubility / statistical significance of DoE factor lecithin on equilibrium solubility / statistical significance of DoE factor monoglyceride on equilibrium solubility / statistical significance of DoE factor pH on equilibrium solubility / statistical significance of DoE factor sodium oleate on equilibrium solubility: fed, current study (Figure 3)
Excerpt: as §1, §2, §3

[3] = Equilibrium solubility in simulated intestinal fluid, dual level DoE, combined fasted and fed arm; type: physicochemical; conditions: for significance of sodium oleate for solubility: Figure 4, significance ±2, positive solubility impact; for significant two way factor interactions on solubility: eight two way interactions, Figure 4
Excerpt: as §1, §2, §3

[4] = Statistical comparison of equilibrium solubility data sets (Mann-Whitney test / two-sample t-test); type: physicochemical; conditions: for statistical comparison of fasted against fed equilibrium solubility: current dual level DoE, where significant, fasted solubility lower than fed; for statistical comparison of dual level fasted with published fasted equilibrium solubility: current fasted arm vs published fasted DoE; for statistical comparison of dual level fed with published fed equilibrium solubility: current fed arm vs published fed DoE
Excerpt: The Kolmogorov normality test was used in Minitab to assess the normality distribution of each data set. A Mann–Whitney test was used to evaluate the median between two data sets (not normally distributed) and the two-sample t-test was used to evaluate the mean of two data sets (normally distributed).

[5] = parameters: method as in ref 13, Figure 2; conditions: fasted, published; Figure 2; cited from earlier work
[6] = parameters: method as in ref 14, Figure 2; conditions: fed, published; Figure 2; cited from earlier work
[7] = combined arm, Figure 4, significance ±2

significant DoE factors influencing solubility [1]: eight out of a possible 14
direction of monoglyceride effect on solubility (standardized effect) [1]: positive effect
statistical significance of DoE factor BS:PL on equilibrium solubility [1]: NS ^e
statistical significance of DoE factor bile salt on equilibrium solubility [1]: NS ^e ^g
statistical significance of DoE factor cholesterol on equilibrium solubility [1]: NS ^e
statistical significance of DoE factor lecithin on equilibrium solubility [1]: S ^d
statistical significance of DoE factor monoglyceride on equilibrium solubility [1]: S ^d
statistical significance of DoE factor pH on equilibrium solubility [1]: S ^d
statistical significance of DoE factor sodium oleate on equilibrium solubility [1]: S ^d
direction of monoglyceride effect on solubility (standardized effect) ([2]; fed arm, Figure 3): positive effect
statistical significance of DoE factor BS:PL on equilibrium solubility [2]: NS ^e
statistical significance of DoE factor bile salt on equilibrium solubility [2]: S ^d
statistical significance of DoE factor cholesterol on equilibrium solubility [2]: NS ^e
statistical significance of DoE factor lecithin on equilibrium solubility [2]: S ^d
statistical significance of DoE factor monoglyceride on equilibrium solubility [2]: S ^d ^g
statistical significance of DoE factor pH on equilibrium solubility [2]: NS ^e ^g
statistical significance of DoE factor sodium oleate on equilibrium solubility [2]: S ^d
significance of bile salt for solubility [3, 7]: significant
significance of cholesterol for solubility [3, 7]: significant
statistical comparison of fasted against fed equilibrium solubility [4]: significant difference
statistical comparison of dual level fasted with published fasted equilibrium solubility [4]: significantly different
Structure (SMILES): CCOC(=O)C1=C(C)NC(C)=C(C(=O)OC)C1c1cccc(Cl)c1Cl (stereo not drawn) [felodipine]
statistical significance of DoE factor bile salt on equilibrium solubility [5]: S ^d ^g
statistical significance of DoE factor lecithin on equilibrium solubility [5]: S ^d
statistical significance of DoE factor pH on equilibrium solubility [5]: S ^d
statistical significance of DoE factor sodium oleate on equilibrium solubility [5]: S ^d
statistical significance of DoE factor bile salt on equilibrium solubility [6]: S ^d
statistical significance of DoE factor lecithin on equilibrium solubility [6]: S ^d
statistical significance of DoE factor monoglyceride on equilibrium solubility [6]: NS ^e ^g
statistical significance of DoE factor pH on equilibrium solubility [6]: S ^d ^g
statistical significance of DoE factor sodium oleate on equilibrium solubility [6]: S ^d

direction of monoglyceride effect on solubility (standardized effect) [1]: positively impacts
statistical significance of DoE factor BS:PL on equilibrium solubility [1]: NS ^e
statistical significance of DoE factor bile salt on equilibrium solubility [1]: NS ^e ^g
statistical significance of DoE factor cholesterol on equilibrium solubility [1]: NS ^e
statistical significance of DoE factor lecithin on equilibrium solubility [1]: S ^d ^g
statistical significance of DoE factor monoglyceride on equilibrium solubility [1]: S ^d
statistical significance of DoE factor pH on equilibrium solubility [1]: NS ^e ^g
statistical significance of DoE factor sodium oleate on equilibrium solubility [1]: S ^d
statistical significance of DoE factor BS:PL on equilibrium solubility [2]: NS ^e
statistical significance of DoE factor bile salt on equilibrium solubility [2]: NS ^e ^g
statistical significance of DoE factor cholesterol on equilibrium solubility [2]: NS ^e
statistical significance of DoE factor lecithin on equilibrium solubility [2]: NS ^e ^g
statistical significance of DoE factor monoglyceride on equilibrium solubility [2]: NS ^e
statistical significance of DoE factor pH on equilibrium solubility [2]: NS ^e ^g
statistical significance of DoE factor sodium oleate on equilibrium solubility [2]: NS ^e ^g
significance of lecithin for solubility [3, 7]: significant
significance of sodium oleate for solubility ([3]; combined arm): significant
statistical comparison of fasted against fed equilibrium solubility [4]: no statistically significant difference
statistical comparison of dual level fasted with published fasted equilibrium solubility [4]: significantly different
statistical comparison of dual level fed with published fed equilibrium solubility [4]: significantly different
Structure (SMILES): C[C@@H](O[C@H]1OCCN(Cc2n[nH]c(=O)[nH]2)[C@H]1c1ccc(F)cc1)c1cc(C(F)(F)F)cc(C(F)(F)F)c1 [aprepitant]
statistical significance of DoE factor bile salt on equilibrium solubility [5]: S ^d ^g
statistical significance of DoE factor lecithin on equilibrium solubility [5]: NS ^e ^g
statistical significance of DoE factor pH on equilibrium solubility [5]: S ^d ^g
statistical significance of DoE factor sodium oleate on equilibrium solubility [5]: S ^d
statistical significance of DoE factor bile salt on equilibrium solubility [6]: S ^d ^g
statistical significance of DoE factor lecithin on equilibrium solubility [6]: S ^d ^g
statistical significance of DoE factor monoglyceride on equilibrium solubility [6]: NS ^e
statistical significance of DoE factor pH on equilibrium solubility [6]: S ^d ^g
statistical significance of DoE factor sodium oleate on equilibrium solubility [6]: S ^d ^g

Continued, compound first:

Structure (SMILES): COc1ccc2c(c1)c(CC(=O)O)c(C)n2C(=O)c1ccc(Cl)cc1 [indomethacin]
statistical significance of DoE factor BS:PL on equilibrium solubility [1]: NS ^e
statistical significance of DoE factor bile salt on equilibrium solubility [1]: NS ^e ^g
statistical significance of DoE factor cholesterol on equilibrium solubility [1]: NS ^e
statistical significance of DoE factor lecithin on equilibrium solubility [1]: NS ^e
statistical significance of DoE factor monoglyceride on equilibrium solubility [1]: NS ^e
statistical significance of DoE factor pH on equilibrium solubility [1]: S ^d
statistical significance of DoE factor sodium oleate on equilibrium solubility [1]: NS ^e ^g
statistical significance of DoE factor BS:PL on equilibrium solubility [2]: NS ^e
statistical significance of DoE factor bile salt on equilibrium solubility [2]: NS ^e ^g
statistical significance of DoE factor cholesterol on equilibrium solubility [2]: NS ^e
statistical significance of DoE factor lecithin on equilibrium solubility [2]: NS ^e
statistical significance of DoE factor monoglyceride on equilibrium solubility [2]: NS ^e
statistical significance of DoE factor pH on equilibrium solubility [2]: S ^d
statistical significance of DoE factor sodium oleate on equilibrium solubility [2]: NS ^e ^g
significance of pH for solubility [3, 7]: significant
significant two way factor interactions on solubility ([3]; combined arm): no significant interactions
statistical comparison of fasted against fed equilibrium solubility [4]: no statistically significant difference
statistical significance of DoE factor bile salt on equilibrium solubility [5]: S ^d ^g
statistical significance of DoE factor lecithin on equilibrium solubility [5]: NS ^e
statistical significance of DoE factor pH on equilibrium solubility [5]: S ^d
statistical significance of DoE factor sodium oleate on equilibrium solubility [5]: S ^d ^g
statistical significance of DoE factor bile salt on equilibrium solubility [6]: S ^d ^g
statistical significance of DoE factor lecithin on equilibrium solubility [6]: NS ^e
statistical significance of DoE factor monoglyceride on equilibrium solubility [6]: NS ^e
statistical significance of DoE factor pH on equilibrium solubility [6]: S ^d
statistical significance of DoE factor sodium oleate on equilibrium solubility [6]: S ^d ^g

Structure (SMILES): CC(C)(Sc1cc(C(C)(C)C)c(O)c(C(C)(C)C)c1)Sc1cc(C(C)(C)C)c(O)c(C(C)(C)C)c1 [probucol]
statistical significance of DoE factor BS:PL on equilibrium solubility [1]: S ^d
statistical significance of DoE factor bile salt on equilibrium solubility [1]: NS ^e
statistical significance of DoE factor cholesterol on equilibrium solubility [1]: NS ^e
statistical significance of DoE factor lecithin on equilibrium solubility [1]: NS ^e
statistical significance of DoE factor monoglyceride on equilibrium solubility [1]: NS ^e
statistical significance of DoE factor pH on equilibrium solubility [1]: NS ^e ^g
statistical significance of DoE factor sodium oleate on equilibrium solubility [1]: S ^d
statistical significance of DoE factor BS:PL on equilibrium solubility [2]: NS ^e
statistical significance of DoE factor bile salt on equilibrium solubility [2]: NS ^e ^g
statistical significance of DoE factor cholesterol on equilibrium solubility [2]: NS ^e
statistical significance of DoE factor lecithin on equilibrium solubility [2]: NS ^e ^g
statistical significance of DoE factor monoglyceride on equilibrium solubility [2]: NS ^e ^g
statistical significance of DoE factor pH on equilibrium solubility [2]: NS ^e ^g
statistical significance of DoE factor sodium oleate on equilibrium solubility [2]: S ^d ^g
variability of equilibrium solubility ([3]; across DoE media, fasted or fed arm, Figures 1 and 2): large variability
significant two way factor interactions on solubility ([3]; combined arm): significant interactions
statistical comparison of fasted against fed equilibrium solubility [4]: no statistically significant difference
statistical comparison of dual level fasted with published fasted equilibrium solubility [4]: significantly different
statistical significance of DoE factor bile salt on equilibrium solubility [5]: NS ^e
statistical significance of DoE factor lecithin on equilibrium solubility [5]: NS ^e
statistical significance of DoE factor pH on equilibrium solubility [5]: S ^d ^g
statistical significance of DoE factor sodium oleate on equilibrium solubility [5]: S ^d
statistical significance of DoE factor bile salt on equilibrium solubility [6]: S ^d ^g
statistical significance of DoE factor lecithin on equilibrium solubility [6]: S ^d ^g
statistical significance of DoE factor monoglyceride on equilibrium solubility [6]: S ^d ^g
statistical significance of DoE factor pH on equilibrium solubility [6]: S ^d ^g

Structure (SMILES): COc1ccccc1OCCNCC(O)COc1cccc2[nH]c3ccccc3c12 (stereo not drawn) [carvedilol]
significant DoE factors influencing solubility [1]: no significant factors
statistical significance of DoE factor BS:PL on equilibrium solubility [1]: NS ^e
statistical significance of DoE factor bile salt on equilibrium solubility [1]: NS ^e ^g
statistical significance of DoE factor cholesterol on equilibrium solubility [1]: NS ^e
statistical significance of DoE factor lecithin on equilibrium solubility [1]: NS ^e ^g
statistical significance of DoE factor monoglyceride on equilibrium solubility [1]: NS ^e
statistical significance of DoE factor pH on equilibrium solubility [1]: NS ^e ^g
statistical significance of DoE factor sodium oleate on equilibrium solubility [1]: NS ^e ^g
statistical significance of DoE factor BS:PL on equilibrium solubility [2]: NS ^e
statistical significance of DoE factor bile salt on equilibrium solubility [2]: NS ^e ^g
statistical significance of DoE factor cholesterol on equilibrium solubility [2]: NS ^e
statistical significance of DoE factor lecithin on equilibrium solubility [2]: NS ^e
statistical significance of DoE factor monoglyceride on equilibrium solubility [2]: NS ^e ^g
statistical significance of DoE factor pH on equilibrium solubility [2]: NS ^e ^g
statistical significance of DoE factor sodium oleate on equilibrium solubility [2]: NS ^e ^g
significance of sodium oleate for solubility ([3]; combined arm): significant
statistical comparison of fasted against fed equilibrium solubility [4]: significant difference
statistical comparison of dual level fed with published fed equilibrium solubility [4]: significantly different
statistical significance of DoE factor bile salt on equilibrium solubility [5]: S ^d ^g
statistical significance of DoE factor lecithin on equilibrium solubility [5]: S ^d ^g
statistical significance of DoE factor pH on equilibrium solubility [5]: S ^d ^g
statistical significance of DoE factor sodium oleate on equilibrium solubility [5]: S ^d ^g
statistical significance of DoE factor bile salt on equilibrium solubility [6]: S ^d ^g
statistical significance of DoE factor lecithin on equilibrium solubility [6]: NS ^e
statistical significance of DoE factor monoglyceride on equilibrium solubility [6]: S ^d ^g
statistical significance of DoE factor pH on equilibrium solubility [6]: S ^d ^g
statistical significance of DoE factor sodium oleate on equilibrium solubility [6]: S ^d ^g
